The subject of the experiment is TGF-β signaling (PAI-1 promoter-luciferase in HepG2 cells). In words: Assay 1: inhibition of TGF-β induced PAI-1 promoter luciferase reporter in HepG2 cells. The note with it: for IC50: Homo sapiens, HepG2, read-out: IC50 value in Assay 1.

Each structure is given as a SMILES string. Where a name gives a salt, the structure may show the parent alone.

Procedure: The assay was performed in HepG2 cells stably transfected with the PAI-1 promoter (known to be a strong TGF-β responsive promoter) linked to a luciferase (firefly) reporter gene. The compounds were selected on their ability to inhibit luciferase activity in cells exposed to TGF-β. In addition cells were transfected with a second luciferase (Renilla) gene which was not driven by a TGF-β responsive promoter and was used as a toxicity control.
(96 well-)microplates are seeded, using a multidrop apparatus, with the stably transfected cell line at a concentration of 35000 cells per well in 200 μl of serum-containing medium. These plates are placed in a cell incubator.
18 to 24 hours later (Day 2), cell-incubation procedure is launched. Cells are incubated with TGF-β and a candidate compound at concentrations in the range 50 nM to 10 μM (final concentration of DMSO 1%). The final concentration of TGF-β (rhTGFβ-1) used in the test is 1 ng/mL. […] The final volume of the test reaction is 150 μl. Each well contains only one candidate compound and its effect on the PAI-1 promoter is monitored.
Columns 11 and 12 are employed as controls. Column 11 contains 8 wells in which the cells are incubated in the presence of TGF-β, without a candidate compound. Column 11 is used to determine the ‘reference TGF-β induced firefly luciferase value’ against which values measured in the test wells (to quantify inhibitory activity) may be compared. In wells A12 to D12, cells are grown in medium without TGF-β. The firefly luciferase values obtained from these positions are representative of the ‘basal firefly luciferase activity’. In wells E12 to H12, cells are incubated in the presence of TGF-β and 500 μM CPO (Cyclopentenone, Sigma), a cell toxic compound.
12 to 18 hours later (day 3), the luciferase quantification procedure is launched. The following reactions are performed using reagents obtained from a Dual Luciferase Assay Kit (Promega). Cells are washed and lysed with the addition of 10 μl of passive lysis buffer (Promega). Following agitation (15 to 30 mins), luciferase activities of the plates are read in a dual-injector luminometer (BMG lumistar). For this purpose, 50 μl of luciferase assay reagent and 50 μl of ‘Stop & Glo’ buffer are injected sequentially to quantify the activities of both luciferases. The mean Luciferase activity value obtained in wells A11 to H11 (Column 11, TGF-β only) is considered to represent 100% and values obtained in wells A12 to D12 (cells in medium alone) give a basal level (0%). For each of the compounds tested, a concentration response curve is constructed from which an IC50 value can be determined graphically.

For orientation: IC50 means the midpoint of a concentration-inhibition curve. As for `FC(F)(F)Oc1ccc(-c2cc(-c3c[nH]nc3-c3ccccn3)ccn2)cc1` [Example 7, 2-(4-Trifluoromethoxyphenyl)-4-(3-pyridin-2-yl-1H-pyrazol-4-yl)pyridine], the IC50 was ≤ 5 µM.
On to `CN(Cc1ccc(-c2cc(-c3c[nH]nc3-c3ccccn3)ccn2)cc1)c1cccnc1` [Example 20, Pyridin-3-yl-methyl-{4-[4-(3-pyridin-2-yl-1H-pyrazol-4-yl)pyridin-2-yl]benzyl}-amine], for which the IC50 is ≤ 5 µM.
In the case of `O=C(NCC1CCCCC1)c1ccc(-c2cc(-c3c[nH]nc3-c3ccccn3)ccn2)cc1` [Example 47, N-Cyclohexylmethyl-4-[4-(3-pyridin-2-yl-1H-pyrazol-4-yl)-pyridin-2-yl]-benzamide], the IC50 was ≤ 5 µM.
Take `c1ccc(-c2n[nH]cc2-c2ccnc(-c3ccc(OCCN4CCCC4)cc3)c2)nc1` [Example 11, 2-[4-(2-Pyrrolidin-1-ylethoxy)-phenyl]-4-(3-pyridin-2-yl-1H-pyrazol-4-yl)pyridine]: the IC50 is ≤ 5 µM.
Same read-out and setting: as for `CN1CCN(CC(=O)Nc2ccc(-c3cc(-c4c[nH]nc4-c4ccccn4)ccn3)cc2)CC1` [Example 24, 2-(4-Methyl-piperazin-1-yl)-N-{4-[4-(3-pyridin-2-yl-1H-pyrazol-4-yl)-pyridin-2-yl]-phenyl}-acetamide], the figure is ≤ 5 µM.
As for `c1ccc(-c2cc(-c3c[nH]nc3-c3ccccn3)ccn2)cc1` [Example 1, 2-Phenyl-4-(3-pyridin-2-yl-1H-pyrazol-4-yl)pyridine], the IC50 is ≤ 5 µM.
On the same count and under the same terms, as for `COCCN(C)C(=O)c1ccc(-c2cc(-c3c[nH]nc3-c3ccccn3)ccn2)cc1` [Example 45, N-(2-Methoxy-ethyl)-N-methyl-4-[4-(3-pyridin-2-yl-1H-pyrazol-4-yl)-pyridin-2-yl]-benzamide], the figure is ≤ 5 µM.
As for `O=C(CCN1CCOCC1)Nc1ccc(-c2cc(-c3c[nH]nc3-c3ccccn3)ccn2)cc1` [Example 26], the IC50 is ≤ 5 µM.
Regarding `O=C(NCC1CCOCC1)c1ccc(-c2cc(-c3c[nH]nc3-c3ccccn3)ccn2)cc1` [Example 44, 4-[4-(3-Pyridin-2-yl-1H-pyrazol-4-yl)-pyridin-2-yl]-N-(tetrahydropyran-4-yl-methyl)-benzamide], the IC50 is ≤ 5 µM.
`Cn1cnc(COc2ccc(-c3cc(-c4c[nH]nc4-c4ccccn4)ccn3)cc2)c1` [Example 14, 2-[4-(1-Methyl-1-H-imidazol-4-ylmethoxy)-phenyl]-4-(3-pyridin-2-yl-1H-pyrazol-4-yl)-pyridine]: the IC50 is ≤ 5 µM.
With `O=C(c1ccc(-c2cc(-c3c[nH]nc3-c3ccccn3)ccn2)cc1)N1CCOCC1` [Example 39, 4-{4-[4-(3-Pyridin-2-yl-1H-pyrazol-4-yl)-pyridin-2-yl]-benzoyl}-morpholine], the IC50 is ≤ 5 µM.
Turning to `COC1CCN(Cc2ccc(-c3cc(-c4c[nH]nc4-c4ccccn4)ccn3)cc2)CC1` [Example 34, 4-Methoxy-1-{4-[4-(3-pyridin-2-yl-1H-pyrazol-4-yl)pyridin-2-yl]benzyl}-piperidine], the IC50 is ≤ 5 µM.
Turning to `CCc1ccc(-c2cc(-c3c[nH]nc3-c3ccccn3)ccn2)cc1` [Example 9, 2-(4-Ethylphenyl)-4-(3-pyridin-2-yl-1H-pyrazol-4-yl)pyridine], the IC50 was ≤ 5 µM.
With `Cn1ccnc1COc1ccc(-c2cc(-c3c[nH]nc3-c3ccccn3)ccn2)cc1` [Example 15, 2-[4-(1-Methyl-1H-imidazol-2-ylmethoxy)-phenyl]-4-(3-pyridin-2-yl-1H-pyrazol-4-yl)pyridine], the IC50 is ≤ 5 µM.
In the case of `c1ccc(-c2n[nH]cc2-c2ccnc(-c3ccc(N4CCOCC4)cc3)c2)nc1` [Example 13, 4-{4-[4-(3-Pyridin-2-yl-1H-pyrazol-4-yl)-pyridin-2-yl]-phenyl}-morpholine], the IC50 is ≤ 5 µM.
With `CN(C)Cc1ccc(-c2cc(-c3c[nH]nc3-c3ccccn3)ccn2)cc1` [Example 43, Dimethyl-{4-[4-(3-pyridin-2-yl-1H-pyrazol-4-yl)pyridin-2-yl]-benzyl}-amine], the IC50 was ≤ 5 µM.
As for `Cn1cncc1COc1ccc(-c2cc(-c3c[nH]nc3-c3ccccn3)ccn2)cc1` [Example 16, 2-[4-(3-Methyl-3H-imidazol-4-ylmethoxy)-phenyl]-4-(3-pyridin-2-yl-1-H-pyrazol-4)-pyridine], the IC50 is ≤ 5 µM.
`Cc1ccc(-c2cc(-c3c[nH]nc3-c3ccccn3)ccn2)cc1` [Example 8, 2-(4-Methylphenyl)-4-(3-pyridin-2-yl-1H-pyrazol-4-yl)pyridine]: the IC50 is ≤ 5 µM.
Regarding `COc1ccc(-c2cc(-c3c[nH]nc3-c3ccccn3)ccn2)cc1` [Example 3, 2-(4-Methoxyphenyl)-4-(3-pyridin-2-yl-1H-pyrazol-4-yl)pyridine], the IC50 was ≤ 5 µM.
With `COCCNC(=O)c1ccc(-c2cc(-c3c[nH]nc3-c3ccccn3)ccn2)cc1` [Example 46, N-(2-Methoxy-ethyl)-4-[4-(3-pyridin-2-yl-1H-pyrazol-4-yl)-pyridin-2-yl]-benzamide], the IC50 was ≤ 5 µM.
For `O=C(CN1CCCCC1)Nc1ccc(-c2cc(-c3c[nH]nc3-c3ccccn3)ccn2)cc1` [Example 21, 2-Piperidin-1-yl-N-{4-[4-(3-pyridin-2-yl-1H-pyrazol-4-yl)-pyridin-2-yl]-phenyl}-acetamide], the IC50 is ≤ 5 µM.
Take `CN1CCC(NCc2ccc(-c3cc(-c4c[nH]nc4-c4ccccn4)ccn3)cc2)CC1` [Example 37, (1-Methyl-piperidin-4-yl)-{4-[4-(3-pyridin-2-yl-1H-pyrazol-4-yl)pyridin-2-yl]benzyl}-amine]: the IC50 is ≤ 5 µM.
Regarding `c1ccc(-c2n[nH]cc2-c2ccnc(-c3ccsc3)c2)nc1` [Example 10, 2-(Thiophen-3-yl)-4-(3-pyridin-2-yl-1H-pyrazol-4-yl)pyridine], the IC50 was ≤ 5 µM.
For the compound `CN1CCN(CCC(=O)Nc2ccc(-c3cc(-c4c[nH]nc4-c4ccccn4)ccn3)cc2)CC1` [Example 27, 3-(4-Methyl-piperazin-1-yl)-N{4-[4-(3-pyridin-2-yl-1H-pyrazol-4-yl)-pyridin-2yl]-phenyl}-propionamide], the IC50 was ≤ 5 µM.
Take `Clc1ccc(-c2cc(-c3c[nH]nc3-c3ccccn3)ccn2)cc1` [Example 5, 2-(4-Chlorophenyl)-4-(3-pyridin-2-yl-1H-pyrazol4-yl)pyridine]: the IC50 is ≤ 5 µM.
Still for that read-out and setting: with `O=C(CN1CCOCC1)Nc1ccc(-c2cc(-c3c[nH]nc3-c3ccccn3)ccn2)cc1` [Example 23, 2-Morpholin-1-yl-N-{4-[4-(3-pyridin-2-yl-1H-pyrazol-4-yl)-pyridin-2-yl]phenyl}-acetamide] the figure was ≤ 5 µM; with `O=C(NC1CCOCC1)c1ccc(-c2cc(-c3c[nH]nc3-c3ccccn3)ccn2)cc1` [Example 28, 4-[4-(3-Pyridin-2-yl-1H-pyrazol-4-yl)-pyridin-2-yl]-N-(tetrahydro-pyran-4-yl)-benzamide], ≤ 5 µM; with `c1ccc(-c2n[nH]cc2-c2ccnc(-c3ccco3)c2)nc1` [Example 6, 2-(Furan-2-yl)-4-(3-pyridin-2-yl-1H-pyrazol-4-yl)pyridine], ≤ 5 µM.
Take `O=C(CN1CCCC1)Nc1ccc(-c2cc(-c3c[nH]nc3-c3ccccn3)ccn2)cc1` [Example 22, 2-Pyrrolidin-1-yl-N-{4-[4-(3-pyridin-2-yl-1H-pyrazol-4-yl)-pyridin-2-yl]-phenyl}-acetamide]: the IC50 was ≤ 5 µM.
For `CN(C)C1CCN(C(=O)c2ccc(-c3cc(-c4c[nH]nc4-c4ccccn4)ccn3)cc2)CC1` [Example 40, (4-Dimethylamino)-1-{4-[4-(3-pyridin-2-yl-1H-pyrazol-4-yl)-pyridin-2-yl]-benzoyl}-piperidine], the IC50 is ≤ 5 µM.
For the compound `Fc1ccc(-c2cc(-c3c[nH]nc3-c3ccccn3)ccn2)cc1` [Example 4, 2-(4-Fluorophenyl)-4-(3-pyridin-2-yl-1H-pyrazol-4-yl)pyridine], the IC50 was ≤ 5 µM.
On the same count and under the same terms, as for `c1ccc(-c2n[nH]cc2-c2ccnc(-c3ccc(CN4CCOCC4)cc3)c2)nc1` [Example 19, {4-[4-(3-Pyridin-2-yl-1H-pyrazol-4-yl)pyridin-2-yl]benzyl}-morpholine hydrochloride], the figure is ≤ 5 µM; as for `CN1CCN(C(=O)c2ccc(-c3cc(-c4c[nH]nc4-c4ccccn4)ccn3)cc2)CC1` [Example 38, 1-Methyl-4-{4-[4-(3-pyridin-2-yl-1H-pyrazol-4-yl)-pyridin-2-yl]-benzoyl}-piperazine], ≤ 5 µM.
On to `FC(F)(F)c1ccc(-c2cc(-c3c[nH]nc3-c3ccccn3)ccn2)cc1` [Example 2, 2-[4(Trifluoromethyl)Phenyl]-4-(3-pyridin-2-yl-1H-pyrazol-4-yl) Pyridine], for which the IC50 was ≤ 5 µM.
As for `O=C(CCN1CCCCC1)Nc1ccc(-c2cc(-c3c[nH]nc3-c3ccccn3)ccn2)cc1` [Example 25, 3-Piperidin-1-yl-N{4-[4-(3-pyridin-2-yl-1H-pyrazol-4-yl)-pyridin-2-yl]-phenyl}-propionamide hydrochloride], the IC50 was ≤ 5 µM.
As for `c1ccc(-c2n[nH]cc2-c2ccnc(-c3ccc(CNC4CCOCC4)cc3)c2)nc1` [Example 18], the IC50 is ≤ 5 µM.
Regarding `CCN1CCCC1CNC(=O)c1ccc(-c2cc(-c3c[nH]nc3-c3ccccn3)ccn2)cc1` (stereo not shown) [Example 29, N-(1-Ethyl-pyrolidin-2-ylmethyl)-4-[4-(3-pyridin-2-yl-1H-pyrazol-4-yl)-pyridin-2-yl]-benzamide], the IC50 is ≤ 5 µM.
Consider `O=C1C=CCC1` [CPO, Cyclopentenone, reference compound], for which the “firefly and renilla luciferase activities (toxicity control)” value (500 μM CPO with TGF-β, % of those obtained in column 11 (TGF-β only)) was “around 50%”.
As to `c1ccc(-c2n[nH]cc2-c2ccnc(-c3ccc(OCCn4ccnc4)cc3)c2)nc1` [Example 17, 2-[4-(2-{1H-Imidazol-1-yl}-ethoxy)-phenyl]-4-(3-pyridin-2-yl-1H-pyrazol-4-yl)-pyridine], the IC50 was ≤ 5 µM.
Still for that read-out and setting: with `N#CCCNCc1ccc(-c2cc(-c3c[nH]nc3-c3ccccn3)ccn2)cc1` [Example 12, 3-({4-[4-(3-Pyridin-2-yl-1H-pyrazol-4-yl)pyridin-2-yl]benzyl}amino)propanenitrile] the figure was ≤ 5 µM.

The values are drawn from US20040087623A1, “Pyrazole derivatives against tgf overexpression” (priority 2001, published 2004).
